# Key:
# Assay type in all cases: in vivo
# [1] = test system: barnyardgrass (Echinochloa crus-galli, ECHCG); assay: Post-emerge test, greenhouse herbicide activity screening; settings: phytotoxicity rating 0-100 (0 no damage, 100 complete death), 14 days after application
# How it was run: (§1)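 Rating: 0–100 visual injury, 14 DAA. Application: acetone, 187 l/ha, 15–1000 g ai/ha, flat-fan track sprayer with nozzle 40–45 cm above soil or canopy. Post-emerge runs used 0.25% v/v surfactant on 2–3 leaf plants.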
# [2] = test system: redroot pigweed (Amaranthus retroflexus, AMARE); assay: as above; settings: phytotoxicity rating 0-100 (0 no damage, 100 complete death), 14 days after application
# How it was run: as §1
# [3] = test system: johnsongrass (Sorghum halepense, SORHA); assay: as above; settings: phytotoxicity rating 0-100 (0 no damage, 100 complete death), 14 days after application
# How it was run: as §1
# [4] = test system: large crabgrass (Digitaria sanguinalis, DIGSA); assay: as above; settings: phytotoxicity rating 0-100 (0 no damage, 100 complete death), 14 days after application
# How it was run: as §1
# [5] = test system: velvetleaf (Abutilon theophrasti, ABUTH); assay: as above; settings: phytotoxicity rating 0-100 (0 no damage, 100 complete death), 14 days after application
# How it was run: as §1
# [6] = test system: green foxtail (Setaria viridis, SETVI); assay: as above; settings: phytotoxicity rating 0-100 (0 no damage, 100 complete death), 14 days after application
# How it was run: as §1
# [7] = test system: lambsquarters (Chenopodium album, CHEAL); assay: as above; settings: phytotoxicity rating 0-100 (0 no damage, 100 complete death), 14 days after application
# How it was run: as §1
# [8] = test system: sicklepod (Cassia obtusifolia, CASOB); assay: as above; settings: phytotoxicity rating 0-100 (0 no damage, 100 complete death), 14 days after application
# How it was run: as §1
# [9] = test system: ivyleaf morningglory (Ipomoea hederacea, IPOHE); assay: as above; settings: phytotoxicity rating 0-100 (0 no damage, 100 complete death), 14 days after application
# How it was run: as §1
# [10] = test system: barnyardgrass (Echinochloa crus-galli, ECHCG); assay: Pre-emerge test, greenhouse herbicide activity screening; settings: pre-emerge, rated 14 days after application, 0 = no damage, 100 = complete death
# How it was run: (§2)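 Visual ratings on a 0-100 scale (0 no damage, 100 all plants dead) were taken at 14 days after treatment. Rates of 15-1000 g ai/ha in acetone, 187 l/ha, were sprayed onto soil one day after planting (pre-emerge) or onto 2-3 leaf plants with 0.25% v/v surfactant (post-emerge).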
# [11] = test system: johnsongrass (Sorghum halepense, SORHA); assay: as above; settings: pre-emerge, rated 14 days after application, 0 = no damage, 100 = complete death
# How it was run: as §2
# [12] = test system: large crabgrass (Digitaria sanguinalis, DIGSA); assay: as above; settings: pre-emerge, rated 14 days after application, 0 = no damage, 100 = complete death
# How it was run: as §2
# [13] = test system: velvetleaf (Abutilon theophrasti, ABUTH); assay: as above; settings: pre-emerge, rated 14 days after application, 0 = no damage, 100 = complete death
# How it was run: as §2
# [14] = test system: green foxtail (Setaria viridis, SETVI); assay: as above; settings: pre-emerge, rated 14 days after application, 0 = no damage, 100 = complete death
# How it was run: as §2
# [15] = test system: lambsquarters (Chenopodium album, CHEAL); assay: as above; settings: pre-emerge, rated 14 days after application, 0 = no damage, 100 = complete death
# How it was run: as §2
# [16] = test system: sicklepod (Cassia obtusifolia, CASOB); assay: as above; settings: pre-emerge, rated 14 days after application, 0 = no damage, 100 = complete death
# How it was run: as §2
# [17] = test system: ivyleaf morningglory (Ipomoea hederacea, IPOHE); assay: as above; settings: pre-emerge, rated 14 days after application, 0 = no damage, 100 = complete death
# How it was run: as §2
# [18] = test system: upland rice (Oryza sp., var. Tebonnet, RICE); assay: Post-emerge test, crop safety; settings: phytotoxicity rating 0-100 (0 no damage, 100 complete death), 14 days after application
# How it was run: as §2
# [19] = test system: field corn (Zea mays L., var. Dekalb 535, CORN); assay: Post-emerge test, crop safety; settings: phytotoxicity rating 0-100 (0 no damage, 100 complete death), 14 days after application
# How it was run: as §2
# [20] = test system: upland rice (Oryza sp., var. Tebonnet, RICE); assay: Pre-emerge test, crop safety; settings: pre-emerge, rated 14 days after application, 0 = no damage, 100 = complete death
# How it was run: as §2
# [21] = test system: field corn (Zea mays L., var. Dekalb 535, CORN); assay: Pre-emerge test, crop safety; settings: pre-emerge, rated 14 days after application, 0 = no damage, 100 = complete death
# How it was run: as §2
# [22] = test system: redroot pigweed (Amaranthus retroflexus, AMARE); assay: Pre-emerge test, greenhouse herbicide activity screening; settings: pre-emerge, rated 14 days after application, 0 = no damage, 100 = complete death
# How it was run: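 Compounds in acetone were track-sprayed at 187 l/ha, 15–1000 g ai/ha, onto sandy loam pots. Pre-emerge seeds were sown one day before spraying, with surface watering afterwards. Post-emerge plants were at the 2–3 leaf stage and sprayed with 0.25% v/v non-ionic surfactant. Injury was rated 0–100 at 14 days.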
structure (smiles),measurement,setting,value
COc1c(Cl)cc(F)c(-n2c(=O)cc(C(F)(F)F)n(C)c2=O)c1NC(=O)C=C(C)C [2-7],Post-emerge Herbicidal Activity ECHCG,[1]; 63 g ai/ha,0
same,Post-emerge Herbicidal Activity ECHCG,[1]; 250 g ai/ha,0
same,Post-emerge Herbicidal Activity AMARE,[2]; 63 g ai/ha,10
same,Post-emerge Herbicidal Activity AMARE,[2]; 250 g ai/ha,50
same,Post-emerge Herbicidal Activity SORHA,[3]; 63 g ai/ha,0
same,Post-emerge Herbicidal Activity SORHA,[3]; 250 g ai/ha,0
same,Post-emerge Herbicidal Activity DIGSA,[4]; 63 g ai/ha,0
same,Post-emerge Herbicidal Activity DIGSA,[4]; 250 g ai/ha,0
same,Post-emerge Herbicidal Activity ABUTH,[5]; 63 g ai/ha,70
same,Post-emerge Herbicidal Activity ABUTH,[5]; 250 g ai/ha,95
same,Post-emerge Herbicidal Activity SETVI,[6]; 63 g ai/ha,0
same,Post-emerge Herbicidal Activity SETVI,[6]; 250 g ai/ha,30
same,Post-emerge Herbicidal Activity CHEAL,[7]; 63 g ai/ha,40
same,Post-emerge Herbicidal Activity CHEAL,[7]; 250 g ai/ha,50
same,Post-emerge Herbicidal Activity CASOB,[8]; 63 g ai/ha,0
same,Post-emerge Herbicidal Activity CASOB,[8]; 250 g ai/ha,30
same,Post-emerge Herbicidal Activity IPOHE,[9]; 63 g ai/ha,50
same,Post-emerge Herbicidal Activity IPOHE,[9]; 250 g ai/ha,90
same,"Pre-emerge Herbicidal Activity ECHCG (phytotoxicity rating, scale 0-100)",[10]; 63 g ai/ha,40
same,"Pre-emerge Herbicidal Activity ECHCG (phytotoxicity rating, scale 0-100)",[10]; 250 g ai/ha,100
same,"Pre-emerge Herbicidal Activity SORHA (phytotoxicity rating, scale 0-100)",[11]; 63 g ai/ha,90
same,"Pre-emerge Herbicidal Activity SORHA (phytotoxicity rating, scale 0-100)",[11]; 250 g ai/ha,95
same,"Pre-emerge Herbicidal Activity DIGSA (phytotoxicity rating, scale 0-100)",[12]; 63 g ai/ha,95
same,"Pre-emerge Herbicidal Activity DIGSA (phytotoxicity rating, scale 0-100)",[12]; 250 g ai/ha,100
same,"Pre-emerge Herbicidal Activity ABUTH (phytotoxicity rating, scale 0-100)",[13]; 63 g ai/ha,100
same,"Pre-emerge Herbicidal Activity ABUTH (phytotoxicity rating, scale 0-100)",[13]; 250 g ai/ha,100
same,"Pre-emerge Herbicidal Activity SETVI (phytotoxicity rating, scale 0-100)",[14]; 63 g ai/ha,95
same,"Pre-emerge Herbicidal Activity SETVI (phytotoxicity rating, scale 0-100)",[14]; 250 g ai/ha,100
same,"Pre-emerge Herbicidal Activity CHEAL (phytotoxicity rating, scale 0-100)",[15]; 63 g ai/ha,100
same,"Pre-emerge Herbicidal Activity CHEAL (phytotoxicity rating, scale 0-100)",[15]; 250 g ai/ha,100
same,"Pre-emerge Herbicidal Activity CASOB (phytotoxicity rating, scale 0-100)",[16]; 63 g ai/ha,60
same,"Pre-emerge Herbicidal Activity CASOB (phytotoxicity rating, scale 0-100)",[16]; 250 g ai/ha,100
same,"Pre-emerge Herbicidal Activity IPOHE (phytotoxicity rating, scale 0-100)",[17]; 63 g ai/ha,70
same,"Pre-emerge Herbicidal Activity IPOHE (phytotoxicity rating, scale 0-100)",[17]; 250 g ai/ha,100
same,Post-emerge Herbicidal Activity RICE (crop damage),[18]; 63 g ai/ha,40
same,Post-emerge Herbicidal Activity RICE (crop damage),[18]; 250 g ai/ha,40
same,Post-emerge Herbicidal Activity CORN (crop damage),[19]; 63 g ai/ha,0
same,Post-emerge Herbicidal Activity CORN (crop damage),[19]; 250 g ai/ha,10
same,"Pre-emerge crop damage RICE (phytotoxicity rating, scale 0-100)",[20]; 63 g ai/ha,60
same,"Pre-emerge crop damage RICE (phytotoxicity rating, scale 0-100)",[20]; 250 g ai/ha,90
same,"Pre-emerge crop damage CORN (phytotoxicity rating, scale 0-100)",[21]; 63 g ai/ha,10
same,"Pre-emerge crop damage CORN (phytotoxicity rating, scale 0-100)",[21]; 250 g ai/ha,70
same,"Pre-emerge Herbicidal Activity AMARE (phytotoxicity rating, scale 0-100)",[22]; 63 g ai/ha,90
same,"Pre-emerge Herbicidal Activity AMARE (phytotoxicity rating, scale 0-100)",[22]; 250 g ai/ha,100
